ChEMBL document CHEMBL4330065, “Type IIA - Type IIB protein tyrosine kinase inhibitors hybridization as an efficient approach for potent multikinase inhibitor development: Design, synthesis, anti-proliferative activity, multikinase inhibitory activity and molecular modeling of novel indolinone-based ureides and amides” (Eur J Med Chem, 2019)

Assays:
[1] = target: Fibroblast growth factor receptor 1 (Homo sapiens, UniProt P11362); experiment: Inhibition of FGFR-1 (unknown origin) by ELISA
[2] = target: Platelet-derived growth factor receptor beta (Homo sapiens, UniProt P09619); experiment: Inhibition of PDGFR-beta (unknown origin) by ELISA
Sequence of Platelet-derived growth factor receptor beta (P09619 whole entry): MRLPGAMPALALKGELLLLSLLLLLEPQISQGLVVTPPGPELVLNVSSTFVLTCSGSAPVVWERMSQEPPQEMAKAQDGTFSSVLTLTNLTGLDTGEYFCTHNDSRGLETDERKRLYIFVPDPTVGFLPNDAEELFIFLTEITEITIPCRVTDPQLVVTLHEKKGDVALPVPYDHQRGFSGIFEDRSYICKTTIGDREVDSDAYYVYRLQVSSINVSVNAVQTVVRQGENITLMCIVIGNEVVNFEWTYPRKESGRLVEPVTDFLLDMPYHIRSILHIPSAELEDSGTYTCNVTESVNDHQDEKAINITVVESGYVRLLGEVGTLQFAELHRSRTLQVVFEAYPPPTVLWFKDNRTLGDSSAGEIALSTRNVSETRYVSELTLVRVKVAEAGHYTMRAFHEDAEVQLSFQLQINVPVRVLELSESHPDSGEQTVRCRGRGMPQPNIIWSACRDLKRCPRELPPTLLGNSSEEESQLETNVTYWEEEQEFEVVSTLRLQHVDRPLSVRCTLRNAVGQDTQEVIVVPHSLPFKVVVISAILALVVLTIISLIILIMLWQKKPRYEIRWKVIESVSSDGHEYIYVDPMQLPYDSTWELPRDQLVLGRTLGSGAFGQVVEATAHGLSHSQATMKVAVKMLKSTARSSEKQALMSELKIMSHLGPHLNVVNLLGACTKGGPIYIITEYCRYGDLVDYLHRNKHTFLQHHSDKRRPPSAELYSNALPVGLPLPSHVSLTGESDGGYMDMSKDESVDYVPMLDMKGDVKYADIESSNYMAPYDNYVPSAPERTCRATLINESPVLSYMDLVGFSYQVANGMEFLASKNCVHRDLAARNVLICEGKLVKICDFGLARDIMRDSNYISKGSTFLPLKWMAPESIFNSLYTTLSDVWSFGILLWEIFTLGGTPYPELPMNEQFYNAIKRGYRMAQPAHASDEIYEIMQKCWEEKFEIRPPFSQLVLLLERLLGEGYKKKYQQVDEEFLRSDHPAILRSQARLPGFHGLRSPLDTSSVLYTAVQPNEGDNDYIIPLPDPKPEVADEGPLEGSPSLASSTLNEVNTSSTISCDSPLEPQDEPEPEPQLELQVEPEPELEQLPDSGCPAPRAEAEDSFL

[3] = target: Vascular endothelial growth factor receptor 2 (Homo sapiens, UniProt P35968)
Sequence of Vascular endothelial growth factor receptor 2 (P35968 whole entry): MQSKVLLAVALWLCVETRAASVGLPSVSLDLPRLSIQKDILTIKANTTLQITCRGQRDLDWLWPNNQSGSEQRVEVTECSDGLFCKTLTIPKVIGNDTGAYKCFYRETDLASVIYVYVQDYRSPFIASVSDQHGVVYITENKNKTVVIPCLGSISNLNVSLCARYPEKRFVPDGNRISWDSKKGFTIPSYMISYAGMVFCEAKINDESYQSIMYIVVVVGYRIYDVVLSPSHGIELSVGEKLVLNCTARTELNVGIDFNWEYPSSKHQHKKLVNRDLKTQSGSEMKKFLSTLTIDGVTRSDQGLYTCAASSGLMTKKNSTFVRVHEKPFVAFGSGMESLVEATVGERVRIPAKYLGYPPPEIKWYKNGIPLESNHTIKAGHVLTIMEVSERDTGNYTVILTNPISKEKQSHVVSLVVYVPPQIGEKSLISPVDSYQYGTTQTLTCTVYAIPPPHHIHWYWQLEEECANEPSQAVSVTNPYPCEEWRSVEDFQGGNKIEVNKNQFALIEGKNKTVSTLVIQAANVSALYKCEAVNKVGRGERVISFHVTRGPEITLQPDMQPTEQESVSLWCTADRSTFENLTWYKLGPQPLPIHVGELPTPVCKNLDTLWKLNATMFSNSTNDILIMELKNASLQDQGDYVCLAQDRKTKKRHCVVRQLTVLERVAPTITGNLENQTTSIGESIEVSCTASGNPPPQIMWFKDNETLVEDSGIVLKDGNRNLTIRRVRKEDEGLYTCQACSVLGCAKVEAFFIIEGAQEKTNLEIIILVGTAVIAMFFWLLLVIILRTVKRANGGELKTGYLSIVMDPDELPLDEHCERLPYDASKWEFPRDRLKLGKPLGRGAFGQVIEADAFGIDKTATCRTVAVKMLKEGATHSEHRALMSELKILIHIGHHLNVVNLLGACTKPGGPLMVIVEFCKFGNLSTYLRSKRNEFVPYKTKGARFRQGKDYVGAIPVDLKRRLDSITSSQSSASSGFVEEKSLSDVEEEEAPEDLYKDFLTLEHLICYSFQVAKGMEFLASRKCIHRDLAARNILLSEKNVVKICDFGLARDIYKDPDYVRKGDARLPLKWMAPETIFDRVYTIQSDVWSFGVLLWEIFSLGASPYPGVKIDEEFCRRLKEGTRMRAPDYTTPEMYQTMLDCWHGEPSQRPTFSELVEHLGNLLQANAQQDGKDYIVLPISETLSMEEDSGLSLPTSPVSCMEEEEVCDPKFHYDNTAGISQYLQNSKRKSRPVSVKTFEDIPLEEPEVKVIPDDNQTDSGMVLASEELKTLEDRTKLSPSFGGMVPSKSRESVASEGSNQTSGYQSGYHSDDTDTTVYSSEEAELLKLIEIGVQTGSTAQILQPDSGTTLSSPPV
Description: Inhibition of VEGFR-2 (unknown origin) using biotinylated poly-GluTyr (4:1) as substrate after 5 mins by ELISA

[4] = tested on: HepG2; experiment: Antiproliferative activity against human HepG2 cells after 48 hrs by SRB assay; format: functional, cell-based; settings: HepG2, 48 h
[5] = tested on: A498; experiment: Antiproliferative activity against human A498 cells after 48 hrs by SRB assay; format: functional, cell-based; settings: A498, 48 h
[6] = Cytotoxicity against human HFB4 cells after 48 hrs by SRB assay; format: cell-based
[7] = tested on: MCF7; experiment: cells; settings: Homo sapiens, MCF7, 48 h
Description: Antiproliferative activity against human MCF7 cells after 48 hrs by SRB assay

[8] = tested on: A549; experiment: cells; settings: Homo sapiens, A549, 48 h
Description: Antiproliferative activity against human A549 cells after 48 hrs by SRB assay

Sequence of Fibroblast growth factor receptor 1 (P11362 whole entry): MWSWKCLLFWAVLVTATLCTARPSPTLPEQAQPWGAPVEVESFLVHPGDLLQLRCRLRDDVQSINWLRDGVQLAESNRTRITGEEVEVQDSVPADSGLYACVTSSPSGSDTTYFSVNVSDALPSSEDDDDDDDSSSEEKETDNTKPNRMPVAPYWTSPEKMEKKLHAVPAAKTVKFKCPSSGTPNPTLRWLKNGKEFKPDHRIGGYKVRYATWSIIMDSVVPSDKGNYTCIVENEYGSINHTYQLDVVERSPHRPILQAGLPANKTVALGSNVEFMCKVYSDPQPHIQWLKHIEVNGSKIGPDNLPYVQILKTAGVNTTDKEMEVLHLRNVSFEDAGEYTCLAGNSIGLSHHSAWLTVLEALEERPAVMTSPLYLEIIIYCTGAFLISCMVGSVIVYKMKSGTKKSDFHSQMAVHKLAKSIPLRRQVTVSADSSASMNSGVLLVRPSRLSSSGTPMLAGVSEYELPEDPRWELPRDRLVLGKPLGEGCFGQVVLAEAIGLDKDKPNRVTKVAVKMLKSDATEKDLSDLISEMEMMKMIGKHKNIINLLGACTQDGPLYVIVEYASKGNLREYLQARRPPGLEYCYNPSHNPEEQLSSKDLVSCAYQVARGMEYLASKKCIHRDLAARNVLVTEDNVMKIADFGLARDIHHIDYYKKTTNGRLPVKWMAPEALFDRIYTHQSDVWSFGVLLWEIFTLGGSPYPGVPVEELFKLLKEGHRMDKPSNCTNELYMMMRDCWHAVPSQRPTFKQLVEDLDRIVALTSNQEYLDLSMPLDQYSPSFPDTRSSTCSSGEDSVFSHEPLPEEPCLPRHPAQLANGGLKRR

IC50 [1] | IC50 [2] | Structure (SMILES) | other results
230 nM | 100 nM | COc1ccc2c(c1)/C(=N/NC(=O)c1ccc(NC(=O)Nc3ccc(Cl)c(C(F)(F)F)c3)cc1)C(=O)N2 | 
300 nM | 110 nM | COc1cccc(NC(=O)Nc2ccc(C(=O)N/N=C3\C(=O)Nc4ccc(OC)cc43)cc2)c1 | IC50 [3]: 270 nM; IC50 [4]: 2930 nM; IC50 ([5]; read-out: IC50): 780 nM; IC50 [6]: 45800 nM; IC50 [7]: 27000 nM; IC50 [8]: > 100000 nM
310 nM | 450 nM | O=C(Nc1ccc(C(=O)N/N=C2\C(=O)Nc3ccc(Br)cc32)cc1)Nc1ccc(Cl)c(C(F)(F)F)c1 | 
380 nM | 230 nM | COc1ccc(C(=O)Nc2ccc(C(=O)N/N=C3\C(=O)Nc4ccc(Br)cc43)cc2)cc1 | 
460 nM | 90 nM | COc1ccc(C(=O)Nc2ccc(C(=O)N/N=C3\C(=O)Nc4ccc(OC)cc43)cc2)cc1 | 
390 nM | 2010 nM | COc1ccc2c(c1)/C(=N/NC(=O)c1ccc(NC(=O)c3ccc(Cl)cc3)cc1)C(=O)N2 | 
480 nM | 1590 nM | COc1cccc(NC(=O)Nc2ccc(C(=O)N/N=C3\C(=O)Nc4ccc(Br)cc43)cc2)c1 | 
390 nM | 1820 nM | COc1ccc2c(c1)/C(=N/NC(=O)c1ccc(NC(=O)Nc3ccc(Cl)cc3)cc1)C(=O)N2 | 
170 nM | 330 nM | COc1ccc(NC(=O)Nc2ccc(C(=O)N/N=C3\C(=O)Nc4ccc(OC)cc43)cc2)cc1 | 
420 nM | 1290 nM | COc1cccc(NC(=O)Nc2ccc(C(=O)N/N=C3\C(=O)Nc4ccc(Cl)cc43)cc2)c1 | 
610 nM | 3790 nM | COc1ccc(NC(=O)Nc2ccc(C(=O)N/N=C3\C(=O)Nc4ccc(Br)cc43)cc2)cc1 | 
280 nM | 3640 nM | COc1ccc2c(c1)/C(=N/NC(=O)c1ccc(NC(=O)Nc3ccccc3)cc1)C(=O)N2 | 
 |  | COc1cccc2c1C(=O)c1c(O)c3c(c(O)c1C2=O)C[C@@](O)(C(=O)CO)C[C@@H]3O[C@H]1C[C@H](N)[C@H](O)[C@H](C)O1 [DOXORUBICIN] | IC50 [4]: 4100 nM; IC50 [5]: 1100 nM; IC50 [6]: 80300 nM; IC50 [8]: 4360 nM
 |  | CNC(=O)c1cc(Oc2ccc(NC(=O)Nc3ccc(Cl)c(C(F)(F)F)c3)cc2)ccn1 [SORAFENIB] | IC50 [4]: 5230 nM; IC50 [6]: 85000 nM; IC50 [7]: 4270 nM; IC50 [8]: 6110 nM
